Experimental data published in patent publication US12115251B2, “Hydrocortisone acetate suppository formulation for treatment of disease” (Cristcot LLC, priority 2015, dated 2024).

Assay type: physicochemical
Experimental: In order to assess the API release profile from the prototypes in Example 4 to identify a lead formulation, a robust dissolution method was developed. Solubility studies were performed on the API for the selection of dissolution media. For these studies, the active concentration of the dissolution media was 0.1 milligrams per milliliter (mg/mL).
According to USP guidelines (on sink conditions) the solubility needs to be at least 3 times the proposed active concentration. […] The studies next turned to the use of higher hydrocortisone acetate concentrations (0.3 mg/mL).
In order to avoid ionization of the hydrocortisone acetate in the dissolution media, a buffer of pH 5.0 was used in combination with 5% w/v SLS. The final composition of the dissolution media was 5% w/v SLS:acetate buffer (pH 5.0) in 70:30 combination with the pH of the final combination adjusted to 6.8-7.0.

With `CC(=O)OCC(=O)[C@@]1(O)CC[C@H]2[C@@H]3CCC4=CC(=O)CC[C@]4(C)[C@H]3[C@@H](O)C[C@@]21C` [hydrocortisone acetate] the average recovered solubility was 98.4% and the “% Solubility API” value (pH 7.2) was 4.1%.
